# Reference: article PMC12040169 (PLOS Biology, 2025)
# Test: in vitro
# Settings: human, hela cells, % viability
row,Compound,"viability at 28.5 h, 10 µM [%]"
1,CC(C)(O)C#Cc1ccc(C(=O)NCCC(=O)O)s1 [CBK267704],97.1
2,Cn1c(=O)c2c(ncn2CCCN)n(C)c1=O [CBK267707C],91.8
3,Cn1c(=O)c2c(nc(N3CCOCC3)n2CC/N=C2/CCCCCN2)n(C)c1=O [CBK267708C],85.7
4,Cc1sc(C(=O)Nc2ccc3ccccc3c2)cc1CC(=O)O [CBK267710],96.4
5,Nc1ccc(/C=C/c2cccc(C(=O)O)n2)cc1 [CBK267711],89.7
6,CN(C)CCn1c2c(c3ccccc31)CCCn1cnnc1-2 [CBK267712C],97.2
7,CCCCOc1ccc(-c2nc(SCC(=O)O)c3c4c(sc3n2)COC(C)(C)C4)cc1 [CBK267716],99.1
8,Cc1c(Cl)ccc2c(C(=O)Nc3ccc(S(=O)(=O)N4CCOCC4)cc3)cc(-c3cccnc3)nc12 [CBK267718],85.5
9,O=C(c1cc(-c2ccncc2)nc2ccc(Cl)cc12)N1CCN(CCc2ccccc2)CC1 [CBK267719],86.6
10,O=C(Nc1ccc(S(=O)(=O)Nc2nccs2)cc1)c1cc(-c2cccnc2)nc2ccc(Cl)cc12 [CBK267721],105
11,Cc1cc(C)c2nc(-c3ccccn3)cc(C(=O)Nc3cccc(Cn4cccn4)c3)c2c1 [CBK267723],90.4
12,Cc1cc(C)c2nc(-c3cccnc3)cc(C(=O)N3CCN(S(=O)(=O)c4ccc(F)cc4)CC3)c2c1 [CBK267726],95
13,CCNS(=O)(=O)c1ccc(NC(=O)c2cc(-c3ccccn3)nc3c(C)c(C)ccc23)cc1 [CBK267733],97.3
14,Cc1ccc(-c2cc(C(=O)NCCCN3CCOCC3)c3cc(Cl)ccc3n2)o1 [CBK267737],108
15,COc1ccc(S(=O)(=O)N2CCN(C(=O)c3cc(-c4ccncc4)nc4c(C)c(Cl)ccc34)CC2)cc1 [CBK267739],92.6
16,Cc1sc(NC(=O)c2cc(-c3ccncc3)nc3ccc(Cl)cc23)c(C#N)c1C [CBK267742],87.7
17,Cc1ccc(-c2cc(C(=O)Nc3ccc(S(N)(=O)=O)cc3)c3ccc(Cl)c(C)c3n2)cc1 [CBK267745],111
18,COc1ccc(NC(=O)c2cc(-c3cccnc3)nc3c(C)c(C)ccc23)c(OC)c1 [CBK267746],96.2
19,Cc1ccc2c(C(=O)Nc3sc4c(c3C(N)=O)CCCCC4)cc(-c3ccccn3)nc2c1C [CBK267749],94
20,COC(=O)c1ccsc1NC(=O)c1cc(-c2ccc(C)o2)nc2ccc(Br)cc12 [CBK267752],86.7
21,COc1ccc(-c2nc3ccc(C)cc3c(C(=O)NCCc3ccc(S(N)(=O)=O)cc3)c2C)cc1 [CBK267753],123

row,Compound,"viability at 28.5 h, 10 µM [%]"
1,Cc1cc(C(F)(F)F)nn1CCCNC(=O)c1cc(-c2ccccc2)nc2ccccc12 [CBK267755],85
2,COc1ccc([N+](=O)[O-])cc1NC(=O)c1cc(-c2cccnc2)nc2ccc(C)cc12 [CBK267757],86.8
3,O=C(Nc1ccccc1-c1ccccc1)c1cc(-c2ccncc2)nc2ccc(Cl)cc12 [CBK267759],95
4,COc1cccc(CN2CCN(C(=O)c3cc(-c4ccncc4)nc4ccc(C)cc34)CC2)c1 [CBK267760],86
5,CC1CCc2c(sc(NC(=O)c3cc(-c4cccnc4)nc4ccc(Cl)cc34)c2C(N)=O)C1 (stereo not shown) [CBK267762],104
6,CC(C)c1cc(C(=O)N2CCOCC2)c(NC(=O)c2cc(-c3cccnc3)nc3ccc(Br)cc23)s1 [CBK267763],93.7
7,COc1ccc([N+](=O)[O-])cc1NC(=O)c1cc(-c2ccccc2Cl)nc2ccc(C)cc12 [CBK267764],94.1
8,CCCc1cc(C(N)=O)c(NC(=O)c2cc(-c3ccc(C)o3)nc3ccccc23)s1 [CBK267766C],90.9
9,O=C(NCc1ccccc1)c1cccc(NC(=O)c2cc(-c3ccccn3)nc3ccc(Cl)cc23)c1 [CBK267768],94
10,O=C(NCc1ccccc1)c1cccc(NC(=O)c2cc(-c3ccncc3)nc3ccc(Cl)cc23)c1 [CBK267769],117
11,NS(=O)(=O)c1ccc(CNC(=O)c2cc(-c3ccncc3)nc3ccc(Cl)cc23)cc1 [CBK267770],101
12,CCN(CC)C(=O)c1sc(NC(=O)c2cc(-c3ccncc3)nc3c(C)cccc23)c(C#N)c1C [CBK267771],93.6
13,Cc1cc(C)c2nc(-c3ccccn3)cc(C(=O)Nc3ccc(S(=O)(=O)Nc4onc(C)c4C)cc3)c2c1 [CBK267775],92.9
14,COc1ccc(OC)c(S(=O)(=O)N2CCN(C(=O)c3cc(-c4ccncc4)nc4c(C)cc(C)cc34)CC2)c1 [CBK267778],103
15,COc1ccccc1-c1cc(C(=O)NCCCN2CCOCC2)c2ccccc2n1 [CBK267780],83.8
16,CC(=O)c1ccc(N2CCN(C(=O)c3cc(-c4ccncc4)nc4ccc(Cl)cc34)CC2)cc1 [CBK267781],91.8
17,Cc1ccc2nc(-c3ccccn3)cc(C(=O)NCc3ccccn3)c2c1 [CBK267782],86.6
18,CC(C)(C)NS(=O)(=O)c1ccc(NC(=O)c2cc(-c3ccccn3)nc3c(Cl)cccc23)cc1 [CBK267783],99.6
19,CC(=O)Nc1cc(C(=O)Nc2ccc(Br)cc2)ccc1C [CBK267788],84.1
20,Cc1ccc(O)c(NC(=O)c2cccc(S(=O)(=O)N3CCCCC3)c2)c1 [CBK267790],83.3
21,Cc1cc(Cl)cc(Br)c1OCCNCCN(C)C [CBK267791G],102

row,Compound,"viability at 28.5 h, 10 µM [%]"
1,O=[N+]([O-])c1ccc(-c2ccc(/C=C/c3cc(O)c4ccccc4n3)o2)cc1 [CBK267792],92.1
2,CN(C)S(=O)(=O)c1cccc(C(=O)NCCc2ccccc2)c1 [CBK267793],91.3
3,O=[N+]([O-])c1cc2c(cc1C(Nc1ccccn1)c1cc(Cl)c3cccnc3c1O)OCO2 (stereo not shown) [CBK267795],83
4,O=C(Nc1ccccc1[N+](=O)[O-])C1(c2ccccc2)CCN(S(=O)(=O)c2ccccc2)CC1 [CBK267796],85.9
5,O=C(O)c1[nH]c2ccccc2c1C(c1c(F)cccc1Cl)c1c(C(=O)O)[nH]c2ccccc12 [CBK267797],87.4
6,O=C(OCc1ccccc1F)c1cccc(-c2nnc(-c3ccccc3)o2)c1 [CBK267798],84.6
7,O=C(CSCc1c(Cl)cccc1Cl)NN1C(=O)c2ccccc2C1=O [CBK267800],101
8,Cc1ccc(SCCCCn2cnc3ccccc32)cc1 [CBK267801G],103
9,O=C(c1c[nH]c2ccccc12)C(O)C(c1ccccc1)N1CCOCC1 (stereo not shown) [CBK267802],95.4
10,Cc1ccc(SCCCNCCN(C)C)cc1 [CBK267807C],92.2
11,Cc1cc(Br)cc(C)c1OCCNCCN(C)C [CBK267808G],106
12,O=C(O)c1ccc(NC(=O)c2ccc(S(=O)(=O)N3CCCCC3)cc2)cc1 [CBK267813],94.2
13,O=C(CSCc1c(Cl)cccc1Cl)Nc1ccc(-c2nnc(-c3ccccc3)o2)cc1 [CBK267817],99.7
14,CC(=O)Nc1ccc(S(=O)(=O)Nc2ccc(-c3nc4cc(C(=O)c5ccccc5)ccc4[nH]3)cc2)cc1 [CBK267819],99.2
15,O=[N+]([O-])c1ccccc1OCCCn1cnc2ccccc21 [CBK267820G],44.2
16,Cc1ccc([N+](=O)[O-])c(OCCNCCN(C)C)c1 [CBK267822C],89
17,O=C(NCc1ccc2c(c1)OCO2)c1ccc2c(c1)C(=O)N(Cc1cccnc1)C2=O [CBK267824],89.3
18,Cc1cc(S(=O)(=O)NC2CCCCC2)ccc1OCC(=O)O [CBK267832],104
19,COc1ccc(S(=O)(=O)N(CC(=O)O)c2ccc(Cl)cc2)cc1OC [CBK267836],97.5
20,Clc1ccccc1-c1nnn(Cc2ccc(-c3nnn[nH]3)cc2)n1 [CBK267838],89.3
21,c1ccc(CSc2nnc3[nH]c4ccccc4n23)cc1 [CBK267841],91.9

row,Compound,"viability at 28.5 h, 10 µM [%]"
1,CCN1CCN(CCNC(=O)Nc2ccccc2C)CC1 [CBK267842],108
2,O=C(Nc1ccc(OCc2nc3ccccc3s2)cc1)c1cccc(I)c1 [CBK267843],119
3,COc1ccc(-c2nc(=S)c3c(n2CCCN(C)C)CC(C)(C)OC3)cc1 [CBK267844],104
4,CCN1CCCC1Cn1c(=S)[nH]c2ccccc2c1=O (stereo not shown) [CBK267849],92.8
5,O=C(CN1CCN(Cc2ccccc2)CC1)Nc1cccc(Cl)c1 [CBK267850],113
6,CS(=O)(=O)Nc1ccc(C(=O)Nc2ccc(S(=O)(=O)Nc3nccs3)cc2)cc1 [CBK267856],97.3
7,CC(=O)Nc1ccc(OCC(O)CNC2CCCC2)cc1 (stereo not shown) [CBK267857C],87.6
8,COc1ccc(NC(=S)NC(=N)N2CCN(Cc3ccccc3)CC2)cc1 [CBK267858],95.1
9,COc1ccc(C)cc1S(=O)(=O)N(C)CC(=O)O [CBK267863],106
10,Cc1ccc(CSCCNS(=O)(=O)c2cccc([N+](=O)[O-])c2)cc1 [CBK267864],108
11,COc1ccc(C(C)(C)C)cc1S(=O)(=O)NC1CC(C)(C)NC(C)(C)C1 [CBK267865],102
12,O=C(CSc1nnc(COc2ccccc2)o1)c1cccc([N+](=O)[O-])c1 [CBK267868],104
13,CC(NS(=O)(=O)c1cc(Cl)ccc1Cl)C(=O)Nc1ccccc1 (stereo not shown) [CBK267871],110
14,O=C(CSc1nnc(-c2ccccc2O)n1-c1ccccc1)Nc1ccc(N2CCOCC2)cc1 [CBK267874],103
15,Nc1n[nH]c(SCC(=O)Nc2ccc(Br)cc2Cl)n1 [CBK267875],95.3
16,O=C(Nc1ccc2oc(-c3cccnc3)nc2c1)c1sc2cc(Cl)ccc2c1Cl [CBK267876],97.4
17,N=C(NC(=S)Nc1ccccc1)N1CCN(Cc2ccccc2)CC1 [CBK267878],106
18,COc1ccc(C)cc1S(=O)(=O)NCCO [CBK267881],98.4
19,COc1ccc(S(=O)(=O)N(C)CC(=O)Nc2cccc(F)c2)cc1Cl [CBK267882],90
